Data reported in patent US11672251B2, “Herbicidally active pyridyl-/pyrimidyl-pyrimidine derivatives” (Syngenta Participations AG, priority 2017, dated 2023).

Assays:
Type in all cases: in vivo
[1] = test system: Lolium perenne (LOLPE); test: B1 pre-emergence herbicidal activity; details: Test 1b, rate 1000 g/ha, evaluated after 13 days, scale 5=total damage to plant, 0=no damage to plant
Description: (§1) Seeds of a variety of test species were sown in standard soil in pots: Triticum aestivium (TRZAW), Avena fatua (AVEFA), Alopecurus myosuroides (ALOMY), Echinochloa crus-galli (ECHCG), Lolium perenne (LOLPE), Zea Mays (ZEAMX), Abutilon theophrasti (ABUTH), Amaranthus retroflexus (AMARE) and Setaria faberi (SETFA). After cultivation for one day (pre-emergence) under controlled conditions in a glasshouse (at 24/16° C., day/night; 14 hours light; 65% humidity), the plants were sprayed with an aqueous spray solution derived from the formulation of the technical active ingredient in acetone/water (50:50) solution containing 0.5% Tween 20 (polyoxyethelyene sorbitan monolaurate, CAS RN 9005-64-5). The test plants were then grown in a glasshouse under controlled conditions (at 24/16° C., day/night; 14 hours light; 65% humidity) and watered twice daily. After 13 days, the test was evaluated (5=total damage to plant; 0=no damage to plant).

[2] = test system: Setaria faberi (SETFA); test: B1 pre-emergence herbicidal activity; details: Test 1b, rate 1000 g/ha, evaluated after 13 days, scale 5=total damage to plant, 0=no damage to plant
Description: as §1

[3] = test system: Avena fatua (AVEFA); test: B1 pre-emergence herbicidal activity; details: Test 1b, rate 1000 g/ha, evaluated after 13 days, scale 5=total damage to plant, 0=no damage to plant
Description: as §1

[4] = test system: Triticum aestivium (TRZAW); test: B1 pre-emergence herbicidal activity; details: Test 1b, rate 1000 g/ha, evaluated after 13 days, scale 5=total damage to plant, 0=no damage to plant
Description: as §1

[5] = test system: Alopecurus myosuroides (ALOMY); test: B1 pre-emergence herbicidal activity; details: Test 1b, rate 1000 g/ha, evaluated after 13 days, scale 5=total damage to plant, 0=no damage to plant
Description: as §1

[6] = test system: Echinochloa crus-galli (ECHCG); test: B1 pre-emergence herbicidal activity; details: Test 1b, rate 1000 g/ha, evaluated after 13 days, scale 5=total damage to plant, 0=no damage to plant
Description: as §1

[7] = test system: Lolium perenne (LOLPE); test: B2 post-emergence herbicidal activity; details: Test B2b; post-emergence (sprayed after 8 days cultivation); rate 1000 g/ha; evaluated after 13 days; scale 5=total damage to plant, 0=no damage to plant
Description: (§2) Seeds of a variety of test species were sown in standard soil in pots: Triticum aestivium (TRZAW), Avena fatua (AVEFA), Alopecurus myosuroides (ALOMY), Echinochloa crus-galli (ECHCG), Lolium perenne (LOLPE), Zea Mays (ZEAMX), Abutilon theophrasti (ABUTH), Amaranthus retroflexus (AMARE) and Setaria faberi (SETFA). After 8 days cultivation (post-emergence) under controlled conditions in a glasshouse (at 24/16° C., day/night; 14 hours light; 65% humidity), the plants were sprayed with an aqueous spray solution derived from the formulation of the technical active ingredient in acetone/water (50:50) solution containing 0.5% Tween 20 (polyoxyethelyene sorbitan monolaurate, CAS RN 9005-64-5). The test plants were then grown in a glasshouse under controlled conditions (at 24/16° C., day/night; 14 hours light; 65% humidity) and watered twice daily. After 13 days, the test was evaluated (5=total damage to plant; 0=no damage to plant).

[8] = test system: Setaria faberi (SETFA); test: B2 post-emergence herbicidal activity; details: Test B2b; post-emergence (sprayed after 8 days cultivation); rate 1000 g/ha; evaluated after 13 days; scale 5=total damage to plant, 0=no damage to plant
Description: as §2

[9] = test system: Avena fatua (AVEFA); test: B2 post-emergence herbicidal activity; details: Test B2b; post-emergence (sprayed after 8 days cultivation); rate 1000 g/ha; evaluated after 13 days; scale 5=total damage to plant, 0=no damage to plant
Description: as §2

[10] = test system: Triticum aestivium (TRZAW); test: B2 post-emergence herbicidal activity; details: Test B2b; post-emergence (sprayed after 8 days cultivation); rate 1000 g/ha; evaluated after 13 days; scale 5=total damage to plant, 0=no damage to plant
Description: as §2

[11] = test system: Alopecurus myosuroides (ALOMY); test: B2 post-emergence herbicidal activity; details: Test B2b; post-emergence (sprayed after 8 days cultivation); rate 1000 g/ha; evaluated after 13 days; scale 5=total damage to plant, 0=no damage to plant
Description: as §2

[12] = test system: Echinochloa crus-galli (ECHCG); test: B2 post-emergence herbicidal activity; details: Test B2b; post-emergence (sprayed after 8 days cultivation); rate 1000 g/ha; evaluated after 13 days; scale 5=total damage to plant, 0=no damage to plant
Description: as §2

CNc1cnc(-c2cncnc2)nc1C [Compound D4]
Control after pre-emergence application, damage score: LOLPE [1]: 1 | Control after pre-emergence application, damage score: SETFA [2]: 2 | Control after pre-emergence application, damage score: AVEFA [3]: 0 | Control after pre-emergence application, damage score: TRAZW [4]: 0 | Control after pre-emergence application, damage score: ALOMY [5]: 0 | Control after pre-emergence application, damage score: ECHCG [6]: 0 | Control after post-emergence application, damage score: LOLPE [7]: 1 | Control after post-emergence application, damage score: SETFA [8]: 1 | Control after post-emergence application, damage score: AVEFA [9]: 0 | Control after post-emergence application, damage score: TRAZW [10]: 0 | Control after post-emergence application, damage score: ALOMY [11]: 1 | Control after post-emergence application, damage score: ECHCG [12]: 1

N#Cc1cncc(-c2ncc(N)c(C(F)(F)F)n2)c1 [Compound D10, 5-[5-amino-4-(trifluoromethyl)pyrimidin-2-yl]pyridine-3-carbonitrile]
Control after pre-emergence application, damage score: LOLPE [1]: 0 | Control after pre-emergence application, damage score: SETFA [2]: 3 | Control after pre-emergence application, damage score: AVEFA [3]: 0 | Control after pre-emergence application, damage score: TRAZW [4]: 0 | Control after pre-emergence application, damage score: ALOMY [5]: 0 | Control after pre-emergence application, damage score: ECHCG [6]: 0 | Control after post-emergence application, damage score: LOLPE [7]: 1 | Control after post-emergence application, damage score: SETFA [8]: 4 | Control after post-emergence application, damage score: AVEFA [9]: 1 | Control after post-emergence application, damage score: TRAZW [10]: 1 | Control after post-emergence application, damage score: ALOMY [11]: 0 | Control after post-emergence application, damage score: ECHCG [12]: 3

Nc1cnc(-c2cncc(F)c2)nc1C(F)(F)F [Compound D5, 2-(5-fluoro-3-pyridyl)-4-(trifluoromethyl)pyrimidin-5-amine]
Control after pre-emergence application, damage score: LOLPE [1]: 1 | Control after pre-emergence application, damage score: SETFA [2]: 5 | Control after pre-emergence application, damage score: AVEFA [3]: 4 | Control after pre-emergence application, damage score: TRAZW [4]: 0 | Control after pre-emergence application, damage score: ALOMY [5]: 1 | Control after pre-emergence application, damage score: ECHCG [6]: 4 | Control after post-emergence application, damage score: LOLPE [7]: 3 | Control after post-emergence application, damage score: SETFA [8]: 5 | Control after post-emergence application, damage score: AVEFA [9]: 4 | Control after post-emergence application, damage score: TRAZW [10]: 1 | Control after post-emergence application, damage score: ALOMY [11]: 1 | Control after post-emergence application, damage score: ECHCG [12]: 4

CNc1cnc(-c2cncc(F)c2)nc1C(F)(F)F [Compound D6]
Control after pre-emergence application, damage score: LOLPE [1]: 1 | Control after pre-emergence application, damage score: SETFA [2]: 4 | Control after pre-emergence application, damage score: AVEFA [3]: 1 | Control after pre-emergence application, damage score: TRAZW [4]: 0 | Control after pre-emergence application, damage score: ALOMY [5]: 0 | Control after pre-emergence application, damage score: ECHCG [6]: 4 | Control after post-emergence application, damage score: LOLPE [7]: 3 | Control after post-emergence application, damage score: SETFA [8]: 5 | Control after post-emergence application, damage score: AVEFA [9]: 2 | Control after post-emergence application, damage score: TRAZW [10]: 1 | Control after post-emergence application, damage score: ALOMY [11]: 0 | Control after post-emergence application, damage score: ECHCG [12]: 5

CCN(CC)c1cnc(-c2cncc(F)c2)nc1C(F)(F)F [Compound D12]
Control after pre-emergence application, damage score: LOLPE [1]: 0 | Control after pre-emergence application, damage score: SETFA [2]: 5 | Control after pre-emergence application, damage score: AVEFA [3]: 0 | Control after pre-emergence application, damage score: TRAZW [4]: 0 | Control after pre-emergence application, damage score: ALOMY [5]: 0 | Control after pre-emergence application, damage score: ECHCG [6]: 1 | Control after post-emergence application, damage score: LOLPE [7]: 2 | Control after post-emergence application, damage score: SETFA [8]: 5 | Control after post-emergence application, damage score: AVEFA [9]: 3 | Control after post-emergence application, damage score: TRAZW [10]: 1 | Control after post-emergence application, damage score: ALOMY [11]: 0 | Control after post-emergence application, damage score: ECHCG [12]: 5
